molecular target: T1, purified human HDAC6 (Homo sapiens, UniProt Q9UBN7); experiment: HDAC6 Enzyme Assay; format: biochemical; conditions: compound concentration 0.37 μM, read-out: Percent Inhibition
T1 construct: purchased BPS Bioscience 5006
T1 sequence (Q9UBN7 1-1215): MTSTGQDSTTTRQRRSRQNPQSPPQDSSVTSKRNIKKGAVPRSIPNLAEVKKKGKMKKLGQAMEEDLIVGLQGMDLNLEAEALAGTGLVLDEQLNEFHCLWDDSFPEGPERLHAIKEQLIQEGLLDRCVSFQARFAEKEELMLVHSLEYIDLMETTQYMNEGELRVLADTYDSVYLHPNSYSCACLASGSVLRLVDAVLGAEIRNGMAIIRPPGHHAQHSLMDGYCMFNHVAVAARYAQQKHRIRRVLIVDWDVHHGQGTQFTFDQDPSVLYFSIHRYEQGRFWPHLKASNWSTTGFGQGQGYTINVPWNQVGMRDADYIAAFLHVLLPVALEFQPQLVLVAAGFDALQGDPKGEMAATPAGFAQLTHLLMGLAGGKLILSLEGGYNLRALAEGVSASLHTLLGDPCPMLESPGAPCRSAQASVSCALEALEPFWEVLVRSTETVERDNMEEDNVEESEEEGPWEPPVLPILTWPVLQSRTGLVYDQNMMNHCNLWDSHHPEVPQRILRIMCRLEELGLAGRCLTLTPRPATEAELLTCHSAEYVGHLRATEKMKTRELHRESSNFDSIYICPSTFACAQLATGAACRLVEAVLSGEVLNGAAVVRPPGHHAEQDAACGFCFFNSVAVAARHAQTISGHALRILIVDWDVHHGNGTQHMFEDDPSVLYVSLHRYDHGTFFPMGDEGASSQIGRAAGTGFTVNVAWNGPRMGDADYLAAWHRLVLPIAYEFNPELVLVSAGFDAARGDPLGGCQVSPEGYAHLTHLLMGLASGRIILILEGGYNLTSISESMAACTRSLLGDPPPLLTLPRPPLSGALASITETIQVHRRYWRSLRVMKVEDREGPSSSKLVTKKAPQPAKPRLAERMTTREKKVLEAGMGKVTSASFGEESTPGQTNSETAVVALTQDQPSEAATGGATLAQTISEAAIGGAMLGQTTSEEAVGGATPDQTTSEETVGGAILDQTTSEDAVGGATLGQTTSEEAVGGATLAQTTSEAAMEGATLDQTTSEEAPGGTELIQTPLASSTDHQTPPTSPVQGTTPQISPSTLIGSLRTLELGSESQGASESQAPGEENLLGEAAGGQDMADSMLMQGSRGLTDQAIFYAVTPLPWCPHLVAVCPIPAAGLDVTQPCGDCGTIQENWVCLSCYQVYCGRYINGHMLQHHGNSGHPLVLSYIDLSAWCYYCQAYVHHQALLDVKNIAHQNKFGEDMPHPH
Description: To measure the inhibition of HDAC6 activity, purified human HDAC6 (BPS Bioscience; Cat. No. 5006) is incubated with substrate Ac-Arg-Gly-Lys(Ac)-AMC peptide (Bachem Biosciences; Cat. No. I-1925) for 1 hour at 30° C. in the presence of test compounds or vehicle DMSO control. The reaction is stopped with the HDAC inhibitor trichostatin A (Sigma; Cat. No. T8552) and the amount of Arg-Gly-Lys-AMC generated is quantitated by digestion with trypsin (Sigma; Cat. No. T1426) and subsequent measurement of the amount of AMC released using a fluorescent plate reader (Pherastar; BMG Technologies) set at Ex 340 nm and Em 460 nm. Concentration response curves are generated by calculating the fluorescence increase in test compound-treated samples relative to DMSO-treated controls, and percentage inhibition values at a single concentration or enzyme inhibition (IC50) values are determined from those curves. One skilled in the art will appreciate that the values generated either as percentage inhibition at a single concentration or IC50 values are subject to experimental variation.

Point of comparison: `O=C(NO)c1ccc2ncn(Cc3cccc(-c4ccccc4Cl)c3)c(=O)c2c1` [Compound I-28, 3-[(2′-chlorobiphenyl-3-yl)methyl]-N-hydroxy-4-oxo-3,4-dihydroquinazoline-6-carboxamide], inhibition at 0.37 µM 85.5%. Against it:
- CC(C)(C)C(=O)NCCCn1ccc2ccc(C(=O)NO)cc2c1=O [Compound I-8, 2-{3-[(2,2-dimethylpropanoyl)amino]propyl}-N-hydroxy-1-oxo-1,2-dihydroisoquinoline-7-carboxamide] — higher, 91.7%
- CC(c1ccccc1)n1cnc2ccc(C(=O)NO)cc2c1=O (stereo not drawn) [Compound I-12, N-hydroxy-4-oxo-3-(1-phenylethyl)-3,4-dihydroquinazoline-6-carboxamide] — higher, 99.2%
- CCn1nccc1-c1nc2cc(C(=O)NO)ccc2c(=O)n1Cc1ccc(C(F)(F)F)cc1 [Compound I-13, 2-(1-ethyl-1H-pyrazol-5-yl)-N-hydroxy-4-oxo-3-[4-(trifluoromethyl)benzyl]-3,4-dihydroquinazoline-7-carboxamide] — lower, 82.1%
- O=C(NO)c1ccc2ncn(Cc3cccc(-c4c(Cl)cccc4Cl)c3)c(=O)c2c1 [Compound I-23, 3-[(2′,6′-dichlorobiphenyl-3-yl)methyl]-N-hydroxy-4-oxo-3,4-dihydroquinazoline-6-carboxamide] — higher, 92.2%
- O=C(NO)c1ccc2c(=O)n(Cc3ccc(C(F)(F)F)cc3)c(-c3cccc4cccnc34)nc2c1 [Compound I-26, N-hydroxy-4-oxo-2-quinolin-8-yl-3-[4-(trifluoromethyl)benzyl]-3,4-dihydroquinazoline-7-carboxamide] — higher, 92.3%

same assay, conditions: compound concentration 0.412 μM, read-out: Percent Inhibition

Point of comparison: `O=C(NO)c1ccc2ccn(CCCOc3cccc4c3CCC4)c(=O)c2c1` [Compound I-21, 2-[3-(2,3-dihydro-1H-inden-4-yloxy)propyl]-N-hydroxy-1-oxo-1,2-dihydroisoquinoline-7-carboxamide], inhibition at 0.412 µM 96.1%. Against it:
- O=C(NO)c1ccc2ccn(Cc3ccc(Cl)c(Cl)c3)c(=O)c2c1 [Compound I-1, 2-(3,4-dichlorobenzyl)-N-hydroxy-1-oxo-1,2-dihydroisoquinoline-7-carboxamide] — lower, 95.9%
- O=C(NO)c1ccc2ccn(CC3CCNCC3)c(=O)c2c1 [Compound I-2, N-hydroxy-1-oxo-2-(piperidin-4-ylmethyl)-1,2-dihydroisoquinoline-7-carboxamide] — lower, 82.2%
- COc1ccc(OCCCn2ccc3ccc(C(=O)NO)cc3c2=O)cc1 [Compound I-3, N-hydroxy-2-[3-(4-methoxyphenoxy)propyl]-1-oxo-1,2-dihydroisoquinoline-7-carboxamide] — lower, 95.8%
- O=C(NO)c1ccc2ncn(C(c3ccccc3)c3ccccc3)c(=O)c2c1 [Compound I-4, 3-(diphenylmethyl)-N-hydroxy-4-oxo-3,4-dihydroquinazoline-6-carboxamide] — lower, 79.6%
- O=C(NO)c1ccc2ccn(Cc3ccc4ccccc4c3)c(=O)c2c1 [Compound I-5, N-hydroxy-2-(2-naphthylmethyl)-1-oxo-1,2-dihydroisoquinoline-7-carboxamide] — higher, 96.5%
- O=C(NO)c1ccc2c(=O)n(CCc3ccccn3)c(C3CCCCC3)nc2c1 [Compound I-6, 2-cyclohexyl-N-hydroxy-4-oxo-3-(2-pyridin-2-ylethyl)-3,4-dihydroquinazoline-7-carboxamide] — lower, 77.7%
- O=C(NO)c1ccc2ccn(Cc3c(Cl)cccc3Cl)c(=O)c2c1 [Compound I-7, 2-(2,6-dichlorobenzyl)-N-hydroxy-1-oxo-1,2-dihydroisoquinoline-7-carboxamide] — lower, 94.9%
- CC(C)n1c(-c2ccccc2)nc2cc(C(=O)NO)ccc2c1=O [Compound I-9, N-hydroxy-3-isopropyl-4-oxo-2-phenyl-3,4-dihydroquinazoline-7-carboxamide] — lower, 85%
- Cc1ccn(CCn2ccc3ccc(C(=O)NO)cc3c2=O)n1 [Compound I-10, N-hydroxy-2-[2-(3-methyl-1H-pyrazol-1-yl)ethyl]-1-oxo-1,2-dihydroisoquinoline-7-carboxamide] — lower, 84.5%
- O=C(NO)c1ccc2ccn(CCCc3ccccc3)c(=O)c2c1 [Compound I-11, N-hydroxy-1-oxo-2-(3-phenylpropyl)-1,2-dihydroisoquinoline-7-carboxamide] — higher, 97%
- O=C(NO)c1ccc2ccn(Cc3cccc(OC(F)(F)F)c3)c(=O)c2c1 [Compound I-14, N-hydroxy-1-oxo-2-[3-(trifluoromethoxy)benzyl]-1,2-dihydroisoquinoline-7-carboxamide] — lower, 95.1%
- CC(C)Nc1nc2cc(C(=O)NO)ccc2c(=O)n1C [Compound I-15, N-hydroxy-2-(isopropylamino)-3-methyl-4-oxo-3,4-dihydroquinazoline-7-carboxamide] — lower, 32.7%
- O=C(NO)c1ccc2c(=O)n(Cc3cccc(C(F)(F)F)c3)cnc2c1 [Compound I-16, N-hydroxy-4-oxo-3-[3-(trifluoromethyl)benzyl]-3,4-dihydroquinazoline-7-carboxamide] — lower, 95.8%
- CC(C)(C)c1cccc(OCc2nc3cc(C(=O)NO)ccc3c(=O)[nH]2)c1 [Compound I-17, 2-[(3-tert-butylphenoxy)methyl]-N-hydroxy-4-oxo-3,4-dihydroquinazoline-7-carboxamide] — lower, 30.6%
- Cc1nc2cc(C(=O)NO)ccc2c(=O)[nH]1 [Compound I-18, N-hydroxy-2-methyl-4-oxo-3,4-dihydroquinazoline-7-carboxamide] — lower, 68.9%
- O=C(NO)c1ccc2ccn(C(c3ccccc3)c3ccccc3)c(=O)c2c1 [Compound I-19, 2-(diphenylmethyl)-N-hydroxy-1-oxo-1,2-dihydroisoquinoline-7-carboxamide] — lower, 94.4%
- O=C(NO)c1ccc2ccn(CCCOc3cccc(OCc4ccccc4)c3)c(=O)c2c1 [Compound I-20, 2-{3-[3-(benzyloxy)phenoxy]propyl}-N-hydroxy-1-oxo-1,2-dihydroisoquinoline-7-carboxamide] — lower, 83%
- O=C(NO)c1ccc2c(=O)n(CCOc3ccccc3)cnc2c1 [Compound I-22, N-hydroxy-4-oxo-3-(2-phenoxyethyl)-3,4-dihydroquinazoline-7-carboxamide] — higher, 96.4%
- O=C(NO)c1ccc2ccn(Cc3cccc(F)c3F)c(=O)c2c1 [Compound I-24, 2-(2,3-difluorobenzyl)-N-hydroxy-1-oxo-1,2-dihydroisoquinoline-7-carboxamide] — lower, 93.7%
- O=C(NO)c1ccc2ncn(CC3CC3)c(=O)c2c1 [Compound I-25, 3-(cyclopropylmethyl)-N-hydroxy-4-oxo-3,4-dihydroquinazoline-6-carboxamide] — lower, 84.7%
- Cc1nc(-c2ccccc2OCCn2ccc3ccc(C(=O)NO)cc3c2=O)cs1 [Compound I-27, N-hydroxy-2-{2-[2-(2-methyl-1,3-thiazol-4-yl)phenoxy]ethyl}-1-oxo-1,2-dihydroisoquinoline-7-carboxamide] — higher, 98.6%
- Cc1ccccc1OCc1nc2cc(C(=O)NO)ccc2c(=O)[nH]1 [Compound I-29, N-hydroxy-2-[(2-methylphenoxy)methyl]-4-oxo-3,4-dihydroquinazoline-7-carboxamide] — lower, 78.9%
- O=C(NO)c1ccc2ncn(Cc3ccc(C(F)(F)F)cc3)c(=O)c2c1 [Compound I-30, N-hydroxy-4-oxo-3-[4-(trifluoromethyl)benzyl]-3,4-dihydroquinazoline-6-carboxamide] — lower, 93.6%
